Key:
[1] = target: human BCL6 BTB domain (Trx-6xHis-BCL6) (Homo sapiens (Human), UniProt P41182); assay: HTRF in vitro assay (BCL6 BTB domain / BCOR-AF633 peptide); type: binding; details: for IC50: read-out: HTRF pIC50 (converted)
Experimental: The % inhibition at each concentration was calculated by normalising FRET ratio to the appropriate high (DMSO with all reagents) and low (DMSO without BCL6) controls.

[2] = target: BCL6-NCOR2(SMRT) corepressor protein-protein interaction (Homo sapiens (Human), UniProt P41182); assay: NanoBRET cell assay in transfected HEK293T cells; type: cell-based; details: further generated data (Table 2b); HEK293T cells, 6 hr; read-out: NanoBRET cell pIC50 (converted)
Text: A cellular nano-Bioluminescence Resonance Energy Transfer (nanoBRET) assay (Promega NanoBRET Nano-Glo Detection System, catalogue number N1662) was used to detect inhibition of the BCL6-NCOR2(SMRT) corepressor protein-protein interaction. DNA encoding full length BCL6 and NCOR2 were inserted into pFC32K.NanoLuc and pFC14K.HaloTag vectors (Promega) to produce C-terminal tagged fusion proteins BCL6-nanoLuc and NCOR2-HaloTag, respectively. […] Frozen transfected HEK293T cells were thawed, centrifuged and freezing medium was replaced by phenol red-free OptiMEM+4% FBS (Life Technology). […] Cells were incubated for 6 hr at 37° C./5% CO2 then NanoBRET furimazine substrate (Promega) was added to give a final concentration of 10 μM. After a short centrifugation the plates were read on an Envision (Perkin Elmer) plate reader equipped with a LUM/D600 Dual mirror, Lum 450/40 nm bandpass and D605 nm longpass filters, with a 0.2 sec reading to determine the BRET ratio. The % inhibition at each test concentration was calculated by normalising the BRET ratio to the appropriate high and low controls.

[3] = further generated data (Table 1b), 1 nM Trx-6xHis-BCL6, 0.5 nM anti-6xHis-Terbium cryptate
[4] = initially generated data (Table 1a), 10 nM Trx-6xHis-BCL6, 1 nM anti-6xHis-Terbium cryptate

| Compound | HTRF pIC50 [1, 3] | IC50 [2] [nM] | IC50 [1, 3] [nM] | HTRF pIC50 [1, 4] |
| --- | --- | --- | --- | --- |
| CC(Nc1cc(=O)n(C)c2ccc(Nc3nc(N4CCC(F)(F)CC4)ncc3Cl)cc12)c1ncccn1 (centres unmarked) [Example 17i, 6-((5-chloro-2-(4,4-difluoropiperidin-1-yl)pyrimidin-4-yl)amino)-1-methyl-4-((1-(pyrimidin-2-yl)ethyl)amino)quinolin-2(1H)-one] | 6.20 | 2820 |  |  |
| CNC(=O)c1cc(Nc2ccc3c(c2)c(NC(C)C2CC2)cc(=O)n3C)c(C#N)c(Cl)n1 (centres unmarked) [Example 7b, 6-chloro-5-cyano-4-((4-((1-cyclopropylethyl)amino)-1-methyl-2-oxo-1,2-dihydroquinolin-6-yl)amino)-N-methylpicolinamide] |  | 1120 | 288 |  |
| C[C@@H](Nc1cc(=O)n(C)c2ccc(Nc3ccnc(Cl)c3C#N)cc12)C1CC1 [Example 10n, (R)-2-chloro-4-((4-((1-cyclopropylethyl)amino)-1-methyl-2-oxo-1,2-dihydroquinolin-6-yl)amino)nicotinonitrile] | 6.55 | 1290 |  |  |
| CC(Nc1cc(=O)n(CCO)c2ccc(Nc3ccnc(Cl)c3C#N)cc12)c1ncccn1 (centres unmarked) [Example 11j, 2-chloro-4-((1-(2-hydroxyethyl)-2-oxo-4-((1-(pyrimidin-2-yl)ethyl)amino)-1,2-dihydroquinolin-6-yl)amino)nicotinonitrile] | 6.83 | 11000 |  |  |
| C[C@@H](Nc1cc(=O)n(C)c2ccc(Nc3ccnc(Cl)c3C#N)cc12)C(=O)NC1CCCC1 [Example 3d, (R)-2-((6-((2-Chloro-3-cyanopyridin-4-yl)amino)-1-methyl-2-oxo-1,2-dihydroquinolin-4-yl)amino)-N-cyclopentylpropanamide] | 6.61 |  |  | 6.62 |
| CNC(=O)[C@@H](C)Nc1cc(=O)[nH]c2ccc(Nc3ccnc(Cl)c3C#N)cc12 [Example 3p, (R)-2-((6-((2-chloro-3-cyanopyridin-4-yl)amino)-2-oxo-1,2-dihydroquinolin-4-yl)amino)-N-methylpropanamide] | 6.61 |  |  | 6.61 |
| C[C@@H](Nc1cc(=O)n(C)c2ccc(Nc3cc(N4CCC(C(=O)N(C)C)CC4)ncc3Cl)cc12)C1CC1 [Example 6i, (R)-1-(5-chloro-4-((4-((1-cyclopropylethyl)amino)-1-methyl-2-oxo-1,2-dihydroquinolin-6-yl)amino)pyridin-2-yl)-N,N-dimethylpiperidine-4-carboxamide] | 6.35 |  |  |  |
| Cc1nnc(C(C)Nc2cc(=O)n(C)c3ccc(Nc4ccnc(Cl)c4C#N)cc23)o1 (centres unmarked) [Example 3l, 2-Chloro-4-((1-methyl-4-((1-(5-methyl-1,3,4-oxadiazol-2-yl)ethyl)amino)-2-oxo-1,2-dihydroquinolin-6-yl)amino)nicotinonitrile] | 5.93 |  |  | 6.16 |
| C[C@@H](Nc1cc(=O)n(C)c2ccc(Nc3nc(N4CCC4)ncc3Cl)cc12)C1CC1 [Example 26a, (R)-6-((2-(azetidin-1-yl)-5-chloropyrimidin-4-yl)amino)-4-((1-cyclopropylethyl)amino)-1-methylquinolin-2(1H)-one: formic acid (1:1)] | 6.25 |  |  |  |
| Cn1c(=O)cc(NC(C)(C)C)c2cc(Nc3cc(C(=O)O)nc(Cl)c3C#N)ccc21 [Example 9n, 4-((4-(tert-butylamino)-1-methyl-2-oxo-1,2-dihydroquinolin-6-yl)amino)-6-chloro-5-cyanopicolinic acid] | 6.84 |  |  |  |
| COc1cc(Nc2ccc3c(c2)c(N[C@H](CO)C2CC2)cc(=O)n3C)c(Cl)cn1 [Example 15c, (S)-6-((5-chloro-2-methoxypyridin-4-yl)amino)4-4((1-cyclopropyl-2-hydroxyethyl)amino)-1-methylquinoline-2(1H)-one] |  |  | 575 |  |
| C[C@H](Nc1cc(=O)n(C)c2ccc(Nc3cc(C(=O)O)nc(Cl)c3C#N)cc12)C1CC1 [Example 9d, (S)-6-chloro-5-cyano-4-((4-((1-cyclopropylethyl)amino)-1-methyl-2-oxo-1,2-dihydroquinolin-6-yl)amino)picolinic acid] | 6.13 |  |  |  |
| Cn1c(=O)cc(N[C@H]2CCOC2)c2cc(Nc3ccnc(Cl)c3C#N)ccc21 [Example 1g, 2-chloro-4-[[1-methyl-2-oxo-4-[[(3S)-tetrahydrofuran-3-yl]amino]-6-quinolyl]amino]pyridine-3-carbonitrile] | 6.13 |  |  | 6.10 |
| COc1ncc(Cl)c(Nc2ccc3c(c2)c(N[C@H](CO)C2CC2)cc(=O)n3C)n1 [Example 11f, (S)-6-((5-chloro-2-methoxypyrimidin-4-yl)amino)-4-((1-cyclopropyl-2-hydroxyethyl)amino)-1-methylquinolin-2(1H)-one] | 6.13 |  |  |  |
| Cn1c(=O)cc(NC(C)(C)c2ncc(C3CC3)cn2)c2cc(Nc3cc(C(=O)O)nc(Cl)c3C#N)ccc21 [Example 9a, 6-chloro-5-cyano-4-((4-((2-(5-cyclopropylpyrimidin-2-yl)propan-2-yl)amino)-1-methyl-2-oxo-1,2-dihydroquinolin-6-yl)amino)picolinic acid] | 7.74 |  |  |  |
| C[C@H](CO)Nc1cc(=O)n(C)c2ccc(Nc3ccnc(Cl)c3C#N)cc12 [Example 3j, (R)-2-chloro-4-((4-((1-hydroxypropan-2-yl)amino)-1-methyl-2-oxo-1,2-dihydroquinolin-6-yl)amino)nicotinonitrile] | 6.14 |  |  | 6.05 |
| C[C@@H](Nc1cc(=O)n(C)c2ccc(Nc3ccnc(Cl)c3C#N)cc12)C(=O)NCCc1cnn(C)c1 [Example 3m, (R)-2-((6-((2-Chloro-3-cyanopyridin-4-yl)amino)-1-methyl-2-oxo-1,2-dihydroquinolin-4-yl)amino)-N-(2-(1-methyl-1H-pyrazol-4-yl)ethyl)propanamide] |  |  |  | 6.06 |
| C[C@@H](Nc1cc(=O)n(C)c2ccc(Nc3ccnc(Cl)c3C#N)cc12)C(=O)NCCO [Example 3b, (R)-2-((6-((2-chloro-3-cyanopyridin-4-yl)amino)-1-methyl-2-oxo-1,2-dihydroquinolin-4-yl)amino)-N-(2-hydroxyethyl)propanamide] | 6.57 |  |  | 6.73 |
| Cn1c(=O)cc(NCC2CC2)c2cc(Nc3cc(C(=O)O)nc(Cl)c3C#N)ccc21 [Example 9l, 6-chloro-5-cyano-4-((4-((cyclopropylmethyl)amino)-1-methyl-2-oxo-1,2-dihydroquinolin-6-yl)amino)picolinic acid] | 6.56 |  |  |  |
| Cc1cc(C)n(-c2ncc(Cl)c(Nc3ccc4c(c3)c(NC(C)c3ncccn3)cc(=O)n4C)n2)n1 (centres unmarked) [Example 14f, 6-((5-chloro-2-(3,5-dimethyl-1H-pyrazol-1-yl)pyrimidin-4-yl)amino)-1-methyl-4-((1-(pyrimidin-2-yl)ethyl)amino)quinolin-2(1H)-one] | 6.49 |  |  |  |
| Cn1c(=O)cc(NCCF)c2cc(Nc3cc(C(=O)O)nc(Cl)c3C#N)ccc21 [Example 9c, 6-chloro-5-cyano-4-((4-((2-fluoroethyl)amino)-1-methyl-2-oxo-1,2-dihydroquinolin-6-yl)amino)picolinic acid] | 6.05 |  |  |  |
| Cn1c(=O)cc(NC2(C)CC2)c2cc(Nc3cc(C(=O)O)nc(Cl)c3C#N)ccc21 [Example 2c, 6-chloro-5-cyano-4-[[1-methyl-4-[(1-methylcyclopropyl)amino]-2-oxo-6-quinolyl]amino]pyridine-2-carboxylic acid] | 6.38 |  |  | 6.36 |
| Cn1c(=O)cc(NC(C)(C)c2ncccn2)c2cc(Nc3cc(C(=O)O)nc(Cl)c3C#N)ccc21 [Example 9f, 6-chloro-5-cyano-4-((1-methyl-2-oxo-4-((2-(pyrimidin-2-yl)propan-2-yl)amino)-1,2-dihydroquinolin-6-yl)amino)picolinic acid] | 7.65 |  |  |  |
| CC(Nc1cc(=O)n(C)c2ccc(Nc3ccnc(Cl)c3C#N)cc12)c1cnccn1 (centres unmarked) [Example 1j, 2-chloro-4-[[1-methyl-2-oxo-4-(1-pyrazin-2-ylethylamino)-6-quinolyl]amino]pyridine-3-carbonitrile] | 6.29 |  |  | 6.27 |
| COCCOCC(C)Nc1cc(=O)n(C)c2ccc(Nc3ccnc(Cl)c3C#N)cc12 (centres unmarked) [Example 11g, 2-chloro-4-((4-((1-(2-methoxyethoxy)propan-2-yl)amino)-1-methyl-2-oxo-1,2-dihydroquinolin-6-yl)amino)nicotinonitrile] | 6.05 |  |  |  |
| CCNc1cc(=O)n(CCOCCOC)c2ccc(Nc3ccnc(Cl)c3C#N)cc12 [Example 1o, 2-chloro-4-[[4-(ethylamino)-1-[2-(2-methoxyethoxy)ethyl]-2-oxo-6-quinolyl]amino]pyridine-3-carbonitrile] |  |  | 708 |  |
| CNC(=O)c1cc(Nc2ccc3c(c2)c(NC(C)(C)C)cc(=O)n3C)c(C#N)c(Cl)n1 [Example 7c, 4-((4-(tert-butylamino)-1-methyl-2-oxo-1,2-dihydroquinolin-6-yl)amino)-6-chloro-5-cyano-N-methylpicolinamide] | 6.33 |  |  |  |
| CC(Nc1cc(=O)n(C)c2ccc(Nc3ccnc(Cl)c3C#N)cc12)c1cc[nH]n1 (centres unmarked) [Example 1t, 2-chloro-4-[[1-methyl-2-oxo-4-[1-(1H-pyrazol-3-yl)ethylamino]-6-quinolyl]amino]pyridine-3-carbonitrile] | 5.84 |  |  | 6.00 |

Source: US11161839B2, “2-quinolone derived inhibitors of BCL6” (Cancer Research Technology Limited, priority 2017, dated 2021)
